Laboratory results as given in ChEMBL document CHEMBL3526091, “Pharmacokinetics, metabolism, and excretion of the glycogen synthase kinase-3 inhibitor LY2090314 in rats, dogs, and humans: a case study in rapid clearance by extensive metabolism with low circulating metabolite exposure” (Drug Metab Dispos, 2013).

Assays:
[1] = Tmax in cancer patient at 10 mg for 60 mins treated 2/1 cycle/day; type: ADME, organism-based; design: dosed compound name LY2090314; details: human, in vivo
[2] = Volume of distribution at steady state in cancer patient at 10 mg for 60 mins treated 2/1 cycle/day; type: ADME, organism-based; design: dosed compound name LY2090314; details: human, in vivo, read-out: Vdss
[3] = Cmax in cancer patient at 10 mg for 60 mins treated 1/1 cycle/day; type: ADME, organism-based; design: dose 10 mg, dosed compound name LY2090314; details: human, in vivo
Canis familiaris [4] = assay: Tmax in beagle dog assessed as total radioactivity at 5 mg/kg, iv administered for 30 mins; type: ADME, organism-based, Canis lupus familiaris; design: dose 5 mg/kg, dosed compound name [14C]LY2090314, route intravenous; details: in vivo, 0.5 h
Rattus norvegicus [5] = assay: Drug recovery in Sprague-Dawley rat cage at 5 mg/kg, iv administered for 30 mins during 0 to 168 hrs time interval by radio analysis; type: ADME, organism-based; design: dose 5 mg/kg, dosed compound name [14C]LY2090314, route intravenous; details: in vivo
[6] = Clearance in cancer patient at 120 mg for 60 mins treated 1/8 cycle/day; type: ADME, organism-based; design: dosed compound name LY2090314; details: human, in vivo
Canis familiaris [7] = assay: Cmax in beagle dog assessed as total radioactivity at 5 mg/kg, iv administered for 30 mins; type: ADME, organism-based, Canis lupus familiaris; design: dose 5 mg/kg, dosed compound name [14C]LY2090314, route intravenous; details: in vivo, 0.5 h
[8] = Half life in cancer patient at 40 mg for 60 mins treated 1/8 cycle/day; type: ADME, organism-based; design: dosed compound name LY2090314; details: human, in vivo
[9] = Cmax in cancer patient at 120 mg for 60 mins treated 1/8 cycle/day; type: ADME, organism-based; design: dose 120 mg, dosed compound name LY2090314; details: human, in vivo
[10] = AUC (0 to infinity) in cancer patient at 120 mg for 60 mins treated 1/8 cycle/day; type: ADME, organism-based; design: dose 120 mg, time infinity, dosed compound name LY2090314; details: human, plasma
[11] = Plasma protein binding in cancer patient; type: ADME, cell-free; design: dosed compound name LY2090314; details: human, read-out: PPB (converted)
[12] = Cmax in cancer patient at 80 mg for 60 mins treated 1/1 cycle/day; type: ADME, organism-based; design: dose 80 mg, dosed compound name LY2090314; details: human, in vivo
Rattus norvegicus [13] = assay: Total drug recovery in bile duct-cannulated Sprague-Dawley rat at 5 mg/kg, iv administered for 30 mins during 0 to 168 hrs time interval by radio analysis; type: ADME, organism-based; design: dose 5 mg/kg, dosed compound name [14C]LY2090314, route intravenous; details: in vivo
[14] = Half life in cancer patient at 60 mg for 60 mins treated 1/1 cycle/day; type: ADME, organism-based; design: dosed compound name LY2090314; details: human, in vivo
[15] = Clearance in cancer patient at 80 mg for 60 mins treated 1/8 cycle/day; type: ADME, organism-based; design: dosed compound name LY2090314; details: human, in vivo
[16] = Plasma protein binding in rat; type: ADME, cell-free; design: dosed compound name [14C]LY2090314; details: read-out: PPB (converted)
[17] = Drug metabolism in Mdr1a knockout Sprague-Dawley rat urine at 5 mg/kg, iv administered for 30 mins; type: ADME, organism-based; design: dose 5 mg/kg, dosed compound name LY2090314, route intravenous; details: in vivo, 0.5 h
Homo sapiens = species on record: Homo sapiens; assay: Drug recovery in cancer patient at 80 to 120 mg for 60 mins; type: ADME, organism-based; design: dosed compound name LY2090314; details: in vivo, 1 h
Canis familiaris [18] = assay: Total drug recovery in beagle dog at 5 mg/kg, iv administered for 30 mins during 0 to 24 hrs time interval by radio analysis; type: ADME, organism-based, Canis lupus familiaris; design: dose 5 mg/kg, dosed compound name [14C]LY2090314, route intravenous; details: in vivo
[19] = Clearance in cancer patient at 60 mg for 60 mins treated 1/8 cycle/day; type: ADME, organism-based; design: dosed compound name LY2090314; details: human, in vivo
[20] = Clearance in beagle dog at 5 mg/kg, iv administered for 30 mins; type: ADME, organism-based, Canis lupus familiaris; design: dose 5 mg/kg, dosed compound name [14C]LY2090314, route intravenous; details: in vivo
Canis familiaris [21] = assay: Total drug recovery in beagle dog at 5 mg/kg, iv administered for 30 mins during 0 to 168 hrs time interval by radio analysis; type: ADME, organism-based, Canis lupus familiaris; design: dose 5 mg/kg, dosed compound name [14C]LY2090314, route intravenous; details: in vivo
[22] = Tmax in cancer patient at 10 mg for 60 mins treated 1/1 cycle/day; type: ADME, organism-based; design: dosed compound name LY2090314; details: human, in vivo
[23] = Volume of distribution at steady state in cancer patient at 60 mg for 60 mins treated 1/8 cycle/day; type: ADME, organism-based; design: dosed compound name LY2090314; details: human, in vivo, read-out: Vdss
[24] = Plasma protein binding in beagle dog; type: ADME, cell-free, Canis lupus familiaris; design: dosed compound name [14C]LY2090314; details: read-out: PPB
[25] = AUC (0 to infinity) in cancer patient at 60 mg for 60 mins treated 1/8 cycle/day; type: ADME, organism-based; design: dose 60 mg, time infinity, dosed compound name LY2090314; details: human, plasma
[26] = Volume of distribution at steady state in cancer patient at 20 mg for 60 mins treated 1/1 cycle/day; type: ADME, organism-based; design: dosed compound name LY2090314; details: human, in vivo, read-out: Vdss
[27] = Tmax in cancer patient at 80 mg for 60 mins treated 1/8 cycle/day; type: ADME, organism-based; design: dosed compound name LY2090314; details: human, in vivo

O=C1NC(=O)C(c2cnc3ccccn23)=C1c1cn2c3c(cc(F)cc13)CN(C(=O)N1CCCCC1)CC2 [LY-2090314]
Tmax [1]: 55.2 min
Vd [2]: 101 L
Cmax [3]: 122 ng/mL
Tmax (Canis familiaris [4]): 30 min
Radiolabel recovery (Rattus norvegicus [5]): 0.14%
clearance [6]: 638 mL/min
Cmax (Canis familiaris [7]): 7240 ng/mL
half-life [8]: 161 min
Cmax [9]: 768 ng/mL
AUC(0-inf) [10]: 2190 ng·h/mL
fraction unbound [11]: 0.03
Cmax [12]: 898 ng/mL
Radiolabel recovery (Rattus norvegicus [13]): 94.9%
half-life [14]: 189 min
clearance [15]: 765 mL/min
fraction unbound [16]: 0.02
Drug metabolism [17]: metabolite_detected
Compound recovery (Homo sapiens): 1.6%
Radiolabel recovery (Canis familiaris [18]): 61.5%
clearance [19]: 633 mL/min
clearance [20]: 27.9 mL/min/kg
Radiolabel recovery (Canis familiaris [21]): 93%
Tmax [22]: 57 min
Vd [23]: 67.5 L
fraction unbound [24]: 0.01
AUC(0-inf) [25]: 1570 ng·h/mL
Vd [26]: 77.5 L
Tmax [27]: 58.8 min
